By IC50 is commonly meant the concentration at which inhibition is half-maximal.

IC50 and Kd data for twelve molecules are collected here from article PMC2690590, “Functional recombinant MHC class II molecules and high-throughput peptide-binding assays” (Immunome Research, 2009).

The target of assay [1] is T1, DR2a (DRA*0101/DRB5*0101) (Homo sapiens, UniProt P01903+Q30154).
T1 construct: DRA*01011-181LZFos; DRB5*01011-190LZJunBSP; made in house
Nature of the assay: Competitive LOCI peptide-MHC-II binding assay, DR2a.

In a further assay the target is T2, DR4 (DRA*0101/DRB1*0401) (Homo sapiens, UniProt P01903+P01911, A100K/A169T/F76Y/I96L/K127E/L162R/M171V/N62H/P40V/Q125Y/R42H/S133A/S149N/S66Y/V115G/V209L/W38E).
T2 construct: DRA*01011-181LZFos; DRB1*04011-190LZJunBSP; made in house
Nature of the assay: Direct LOCI peptide-MHC-II binding assay, DR4.

Assay [2] addresses DP401 (DPA1*0103/DPB1*0401) (Homo sapiens, UniProt P04440+P20036). The assay is described as follows: Direct LOCI peptide-MHC-II binding assay, DP401.
The target of assay [3] is T3, DRB3*0301 (DRA*0101/DRB3*0301) (Homo sapiens, UniProt P01903+P79483, A169T/A212P/D57E/G115V/L67V/Q178H/R103Q/R40L/Y55F).
T3 construct: DRA*01011-181LZFos; DRB3*03011-190LZJunBSP; made in house
The assay is described as follows: Direct LOCI peptide-MHC-II binding assay, DRB3*0301.

Assay [4] addresses T4, DRB1*0813 (DRA*0101/DRB1*0813) (Homo sapiens, UniProt P01903+P01911, A100R/A103L/A169T/F76Y/H45Y/I96L/K41T/L162R/M171V/P40S/Q125H/Q178H/Q39Y/Q99D/R218S/R42G/S66Y/V115G/W38E).
T4 construct: DRA*01011-181LZFos; DRB1*08131-190LZJunBSP; made in house
Nature of the assay: Direct LOCI peptide-MHC-II binding assay, DRB1*0813.

Assay [5] concerns the target T1, DR2a (DRA*0101/DRB5*0101). Nature of the assay: Direct LOCI peptide-MHC-II binding assay, DR2a.
The target in the next assay is T5, I-E^d (Mus musculus, UniProt P01904+P01915).
T5 construct: I-E^dA1-191LZFos; I-E^dB1-198LZJunBSP; made in house
Nature of the assay: Direct LOCI peptide-MHC-II binding assay, I-E^d.

A further assay deals with T6, DR3 (DRA*0101/DRB1*0301) (Homo sapiens, UniProt P01903+P01911, A100K/A102G/A103R/A169T/F55Y/I96L/K41T/L162R/M171V/P40S/Q125H/Q178H/Q39Y/R42S/S66N/T106N/T262R/W38E/Y61H).
T6 construct: DRA*01011-181LZFos; DRB1*03011-190LZJunBSP; made in house
Nature of the assay: Direct LOCI peptide-MHC-II binding assay, DR3.

Setting [6] is: pH 7, 48 h 18°C, read-out: DRB3*0301 affinity.
Setting [7] is: pH 6-7, 48 h 18°C, read-out: DR3 affinity.

Read-outs that look alike come from different tables or passages of the source. Where no end group is shown, it is not given here.

Molecule `CC[C@H](C)[C@H](NC(=O)[C@@H](N)CCCCN)C(=O)N[C@@H](CC(C)C)C(=O)N[C@@H](CCC(=O)O)C(=O)N1CCC[C@H]1C(=O)N[C@@H](Cc1ccccc1)C(=O)N[C@@H](CCCNC(=N)N)C(=O)N[C@@H](CCCCN)C(=O)N[C@@H](Cc1ccc(O)cc1)C(=O)N[C@H](C(=O)N[C@@H](C)C(=O)N[C@@H](Cc1ccccc1)C(=O)N[C@H](C(=O)N[C@H](C(=O)N1CCC[C@H]1C(=O)O)[C@@H](C)CC)[C@@H](C)O)[C@@H](C)O` yielded an IC50 in assay [1] (DR2a Komp IC50 (nM)) of 1 nM. The Kd came out at 1600 nM at DR4 (DRA*0101/DRB1*0401) (DR4 affinity (nM)); 30 nM in assay [2] (DP401 affinity (nM)); 1020 nM in assay [3]; 11 nM in assay [4]; 16 nM in assay [5]; 2200 nM at I-E^d (I-E^D affinity (nM)). Further, the Kd at DR3 (DRA*0101/DRB1*0301) was 18 nM.

In the case of `CC(C)C[C@H](NC(=O)CNC(=O)[C@H](Cc1c[nH]c2ccccc12)NC(=O)CNC(=O)[C@@H](NC(=O)[C@@H]1CCCN1C(=O)[C@@H](NC(=O)[C@H](C)NC(=O)[C@H](CC(=O)O)NC(=O)[C@H](C)NC(=O)[C@H](Cc1ccccc1)NC(=O)[C@@H](NC(=O)[C@H](CCC(N)=O)NC(=O)[C@H](CS)NC(=O)[C@H](CC(C)C)NC(=O)[C@@H](N)Cc1ccc(O)cc1)C(C)C)[C@@H](C)O)[C@@H](C)O)C(=O)O`, in assay [1], the concentration for half-maximal inhibition (IC50) is more than 5000 nM. Besides, the Kd is 18 nM on DR4 (DRA*0101/DRB1*0401); 13 nM in assay [2]; 2060 nM in assay [3]; 2990 nM in assay [4]; 3700 nM in assay [5]; more than 5000 nM on I-E^d. For the same molecule, the Kd at DR3 (DRA*0101/DRB1*0301) was 69 nM.

Turning to `CC[C@H](C)[C@H](NC(=O)[C@H](Cc1ccccc1)NC(=O)[C@@H]1CCCN1C(=O)[C@@H](N)Cc1ccc(O)cc1)C(=O)N[C@@H](CCC(=O)O)C(=O)N[C@@H](CCC(N)=O)C(=O)N[C@@H](CCC(=O)O)C(=O)NCC(=O)N1CCC[C@H]1C(=O)N[C@@H](CCC(=O)O)C(=O)N[C@@H](Cc1ccccc1)C(=O)N[C@@H](Cc1ccccc1)C(=O)N[C@@H](CC(=O)O)C(=O)N[C@@H](CCC(N)=O)C(=O)N[C@@H](CCC(=O)O)C(=O)O`, the IC50 in assay [1] (DR2a Komp IC50 (nM)) is more than 5000 nM. In addition, the Kd in assay [2] (DP401 affinity (nM)) is more than 5000 nM; in assay [3] (setting [6]), 3230 nM; in assay [4], more than 5000 nM; in assay [5] it was more than 5000 nM; on I-E^d (I-E^D affinity (nM)), more than 5000 nM; at DR3 (DRA*0101/DRB1*0301) (setting [7]), 289 nM.

Consider `CC[C@H](C)[C@H](NC(=O)[C@H](Cc1c[nH]cn1)NC(=O)[C@H](Cc1c[nH]cn1)NC(=O)[C@H](Cc1c[nH]cn1)NC(=O)[C@H](Cc1c[nH]cn1)NC(=O)[C@H](Cc1c[nH]cn1)NC(=O)[C@H](Cc1c[nH]cn1)NC(=O)[C@@H](N)Cc1ccc(O)cc1)C(=O)N[C@@H](CCC(=O)O)C(=O)NCC(=O)N[C@@H](CCCNC(=N)N)C(=O)N[C@@H](CO)C(=O)N[C@@H](Cc1ccccc1)C(=O)N[C@@H](CCC(=O)O)C(=O)N[C@@H](CCCNC(=N)N)C(=O)N[C@@H](Cc1ccccc1)C(=O)N[C@@H](CCC(=O)O)C(=O)N[C@H](C(=O)N[C@@H](Cc1ccccc1)C(=O)N1CCC[C@H]1C(=O)N[C@@H](CCCCN)C(=O)N[C@@H](CCC(=O)O)C(=O)O)[C@@H](C)CC` [6xH Influenza A (PR8) HA 109–119], for which the IC50 in assay [1] was determined as 23 nM. Besides, the Kd at DR4 (DRA*0101/DRB1*0401) stood at 1870 nM; in assay [2] it was 1 nM; in assay [3] it was 1530 nM; in assay [4], 181 nM; in assay [5], 9 nM; on I-E^d, 984 nM. On DR3 (DRA*0101/DRB1*0301), the Kd came to 1430 nM.

Take `CSCC[C@H](NC(=O)[C@H](CCCNC(=N)N)NC(=O)[C@H](CCSC)NC(=O)[C@H](CCCCN)NC(=O)[C@H](CO)NC(=O)[C@@H](NC(=O)[C@@H]1CCCN1C(=O)[C@H](CCCCN)NC(=O)[C@@H]1CCCN1C(=O)[C@@H]1CCCN1C(=O)[C@H](CCCCN)NC(=O)[C@@H]1CCCN1C(=O)[C@@H](N)CC(C)C)C(C)C)C(=O)N[C@@H](C)C(=O)N[C@H](C(=O)N1CCC[C@H]1C(=O)N[C@@H](CC(C)C)C(=O)N[C@@H](CC(C)C)C(=O)N[C@@H](CCSC)C(=O)N[C@@H](CCC(N)=O)C(=O)N[C@@H](C)C(=O)N[C@@H](CC(C)C)C(=O)N1CCC[C@H]1C(=O)N[C@@H](CCSC)C(=O)N[C@@H](Cc1ccc(O)cc1)C(=O)N[C@@H](Cc1c[nH]cn1)C(=O)N[C@@H](Cc1c[nH]cn1)C(=O)N[C@@H](Cc1c[nH]cn1)C(=O)N[C@@H](Cc1c[nH]cn1)C(=O)N[C@@H](Cc1c[nH]cn1)C(=O)N[C@@H](Cc1c[nH]cn1)C(=O)O)[C@@H](C)O` [CLIP 6xH]: the half-maximal inhibitory concentration (IC50) in assay [1] (competitive LOCI, 4 nM biotin-PEG-HA306–318 agonist, β chain without biotin, α/β 13/5 nM, pH 6-7.5, L243, 48 h 18°C, average of 2–4 measurements, read-out: DR2a Komp IC50) was 1 nM. Besides, the Kd was 1 nM at DR4 (DRA*0101/DRB1*0401) (read-out: DR4 affinity); 1 nM in assay [2] (read-out: DP401 affinity); 1 nM in assay [3] (read-out: DRB3*0301 affinity); 2 nM in assay [4] (read-out: DRB1*0813 affinity); 1 nM in assay [5] (read-out: DR2a pH6 affinity); 1 nM at DR3 (DRA*0101/DRB1*0301) (read-out: DR3 affinity).

For `CC[C@H](C)[C@H](NC(=O)CNC(=O)[C@@H](NC(=O)[C@H](Cc1ccccc1)NC(=O)[C@H](CCCCN)NC(=O)[C@H](CO)NC(=O)[C@H](CC(N)=O)NC(=O)[C@H](C)NC(=O)[C@H](CCCCN)NC(=O)[C@@H](NC(=O)[C@H](Cc1ccc(O)cc1)NC(=O)[C@@H](N)CCC(N)=O)[C@@H](C)CC)[C@@H](C)CC)C(=O)N[C@H](C(=O)N[C@@H](CCC(=O)O)C(=O)O)[C@@H](C)O` [Clostridium tetanus], the Kd in assay [2] is 56 nM; in assay [3], 1 nM; on I-E^d, 1500 nM.

In assay [1], `CC[C@H](C)[C@H](N)C(=O)N[C@H](C(=O)N[C@@H](Cc1ccccc1)C(=O)N[C@@H](CCSC)C(=O)N[C@@H](Cc1c[nH]c2ccccc12)C(=O)N[C@@H](C)C(=O)N[C@H](C(=O)N[C@@H](Cc1c[nH]cn1)C(=O)N[C@@H](Cc1c[nH]cn1)C(=O)O)[C@@H](C)CC)C(C)C` [Flu HA1194-202] returned an IC50 of 529 nM. Moreover, the Kd was more than 5000 nM at DR4 (DRA*0101/DRB1*0401); more than 5000 nM in assay [2]; more than 5000 nM in assay [3]; 276 nM in assay [4]; 167 nM in assay [5]; more than 5000 nM on I-E^d. Further, the Kd on DR3 (DRA*0101/DRB1*0301) is more than 5000 nM.

`CSCC[C@H](NC(=O)[C@@H](N)Cc1ccccc1)C(=O)N[C@@H](CO)C(=O)N[C@@H](CCCNC(=N)N)C(=O)N[C@@H](CCCCN)C(=O)N[C@@H](CC(C)C)C(=O)N[C@@H](Cc1c[nH]cn1)C(=O)N[C@@H](CCCNC(=N)N)C(=O)N[C@@H](Cc1ccc(O)cc1)C(=O)O` [Hantaan] registered an IC50 in assay [1] of 2550 nM. Moreover, the Kd in assay [5] was more than 5000 nM; at I-E^d, 3 nM.

In assay [1] (DR2a Komp IC50 (nM)), FLYGALLLA [MBP] registered an IC50 of more than 5000 nM. For the same molecule, the Kd on DR4 (DRA*0101/DRB1*0401) (DR4 affinity (nM)) was more than 5000 nM; in assay [2] (DP401 affinity (nM)), 34 nM; in assay [4], more than 5000 nM; in assay [5], more than 5000 nM; at I-E^d (I-E^D affinity (nM)), more than 5000 nM; on DR3 (DRA*0101/DRB1*0301), more than 5000 nM.

WMARRHAER [Brucella] showed a 50% inhibitory concentration (IC50) in assay [1] of more than 5000 nM. The values for the Kd (in assay [5]; on I-E^d) were more than 5000 nM and 6 nM, respectively.

For YILFLVKMNALRRLPV, the IC50 in assay [1] (pH 6-7.5, 48 h 18°C, read-out: DR2a Komp IC50) came out at 20 nM. The Kd in assay [2] (pH 7, 48 h 18°C, read-out: DP401 affinity) was 45 nM; in assay [3] (setting [6]), 3 nM; in assay [4] (pH 6-7.5, 48 h 18°C, read-out: DRB1*0813 affinity) it was 78 nM; in assay [5] (pH 6, 48 h 18°C, read-out: DR2a pH6 affinity), 5 nM; at I-E^d (48 h 18°C, read-out: I-E^D affinity), 582 nM; on DR3 (DRA*0101/DRB1*0301) (setting [7]), 39 nM.

Molecule YLFFYRKSV [TERT572Y] came in with an IC50 in assay [1] (DR2a Komp IC50 (nM)) of more than 5000 nM. The Kd on DR4 (DRA*0101/DRB1*0401) (DR4 affinity (nM)) was 1590 nM; in assay [2] (DP401 affinity (nM)), more than 5000 nM; in assay [4], 95 nM; in assay [5], 2650 nM; at I-E^d (I-E^D affinity (nM)) it was 322 nM; at DR3 (DRA*0101/DRB1*0301), more than 5000 nM.
